Structures can show the parent of a compound that is named as a salt.

In general, melting point refers to the temperature of the solid-liquid transition. `CN1CCC(OC(c2cccc(N3CCC(=O)C3)c2)c2nc3ccccc3s2)CC1` (stereo not shown) (as salt: oxalate) [Example 443, 1-{3-[benzothiazol-2-yl(1-methylpiperidin-4-yloxy)methyl]phenyl}pyrrolidin-3-one] yielded a melting point of 105 °C.
The result for `CN1CCC(OC(c2nc3ccccc3[nH]2)c2cc(O)ccc2F)CC1` (stereo not shown) (as salt: oxalate) [Example 487] reads 135 °C; that for `CN1CCC(OC(c2cccc(OCCCn3cncn3)c2)c2nc3ccccc3s2)CC1` (stereo not shown) (as salt: oxalate) [Example 348, 2-{(1-methylpiperidin-4-yloxy)[3-(3-[1,2,4]triazol-1-yl-propoxy)phenyl]methyl}benzothiazole], 60 °C.
`CN1CCC(OC(c2cccc(C(=O)N(C)Cc3ccccc3)c2)c2nc3ccccc3s2)CC1` (stereo not shown) (as salt: oxalate) [Example 219, 3-[benzothiazol-2-yl(1-methylpiperidin-4-yloxy)methyl]-N-benzyl-N-methylbenzamide] yielded a melting point of 103 °C.
With `COc1cccc(COc2cccc(C(NC3CCN(C)CC3)c3nc4ccccc4[nH]3)c2)c1` (stereo not shown) (as salt: oxalate) [Example 125, {(1H-benzimidazol-2-yl)[3-(3-methoxybenzyloxy)phenyl]methyl}(1-methylpiperidin-4-yl)amine], the melting point is 135 °C.
The result for `CN1CCC(OC(c2nc3ccccc3[nH]2)c2ccc(F)cc2F)CC1` (stereo not shown) (as salt: oxalate) [Example 221, 2-[(2,4-difluorophenyl)(1-methylpiperidin-4-yloxy)methyl]-1H-benzimidazole] reads 106 °C; that for `CC(=O)c1ccc(-c2cccc(C(OC3CCN(C)CC3)c3nc4ccccc4[nH]3)c2)cc1` (stereo not shown) (as salt: oxalate) [Example 108, 1-{3′-[(1H-benzimidazol-2-yl)(1-methylpiperidin-4-yloxy)methyl]biphenyl-4-yl}ethanone], 115 °C.
Molecule `CN1CCC(OC(c2cccc(OCCCF)c2)c2nc3ccccc3[nH]2)CC1` (stereo not shown) (as salt: oxalate) [Example 475] had a melting point of 106 °C.
The result for `CN1CCC(OC(c2cccc(SCCCCCN)c2)c2nc3ccccc3s2)CC1` (stereo not shown) (as salt: oxalate) [Example 305, 5-{3-[benzothiazol-2-yl(1-methylpiperidin-4-yloxy)methyl]phenylsulfanyl}pentylamine] reads 201 °C; that for `CN1CCC(OC(c2ccc(Cl)cc2)c2nc3ccccc3s2)CC1` (stereo not shown) (as salt: oxalate) [Example 4, 2-[(4-chlorophenyl)(1-methylpiperidin-4-yloxy)methyl]benzothiazole], 147 to 148 °C.
`CN1CCC(OC(c2cccc(Oc3ccccc3)c2)c2nc3ccccc3s2)CC1` (stereo not shown) (as salt: oxalate) [Example 28, 2-[(1-methylpiperidin-4-yloxy)(3-phenoxy-phenyl)methyl]benzothiazole]: the melting point was found to be 92 °C.
`CN1CCC(OC(c2nc3ccccc3o2)c2cc(OC(F)(F)F)ccc2F)CC1` (stereo not shown) (as salt: oxalate) [Example 525, 2-[(2-fluoro-5-trifluoromethoxyphenyl)(1-methylpiperidin-4-yloxy)methyl]benzoxazole] registered a melting point of 103 °C.
Molecule `CN1CCC(OC(c2ccc(OC(F)(F)F)cc2)c2nc3ccccc3s2)CC1` (stereo not shown) (as salt: oxalate) [Example 24, 2-[(1-methylpiperidin-4-yloxy)(4-trifluoromethoxyphenyl)methyl]benzothiazole] returned a melting point of 155 °C.
`CN1CCC(OC(c2cccc(Oc3cccnc3)c2)c2nc3ccccc3s2)CC1` (stereo not shown) (as salt: oxalate) [Example 448, 2-{(1-methylpiperidin-4-yloxy)[3-(pyridin-3-yloxy)phenyl]methyl}benzothiazole] yielded a melting point of 78 °C.
The result for `CN1CCC(OC(c2cccc(OCCNCC(=O)OC(C)(C)C)c2)c2nc3ccccc3s2)CC1` (stereo not shown) (as salt: oxalate) [Example 370, (2-{3-[benzothiazol-2-yl(1-methylpiperidin-4-yloxy)methyl]phenoxy}ethylamino)acetic acid tert-butyl ester] reads 136 °C; that for `CN1CCC(NC(c2cccc(OCc3cccc(F)c3)c2)c2nc3ccccc3[nH]2)CC1` (stereo not shown) (as salt: oxalate) [Example 105, {(1H-benzimidazol-2-yl)[3-(3-fluorobenzyloxy)phenyl]methyl}(1-methylpiperidin-4-yl)amine], 116 °C.
The result for `CN1CCC(OC(c2cccc(OCCCCN3CCOCC3)c2)c2nc3ccccc3[nH]2)CC1` (stereo not shown) (as salt: oxalate) [Example 332, 2-{(1-methylpiperidin-4-yloxy)[3-(4-morpholin-4-yl-butoxy)phenyl]methyl}-1H-benzimidazole] reads 85 °C.
Consider `CN1CCC(OC(c2cccc(SCCN)c2)c2nc3ccccc3s2)CC1` (stereo not shown) (as salt: oxalate) [Example 269, 2-{3-[benzothiazol-2-yl(1-methylpiperidin-4-yloxy)methyl]phenylsulfanyl}ethylamine], for which the melting point was determined as 80 °C.
`CN1CCC(OC(c2cccc(OCC3CCCNC3)c2)c2nc3ccccc3s2)CC1` (stereo not shown) (as salt: oxalate) [Example 378, 2-{(1-methylpiperidin-4-yloxy)[3-(piperidin-3-ylmethoxy)phenyl]methyl}benzothiazole] returned a melting point of 55 °C.
The result for `COc1ccc(F)c(C(OC2CCN(C)CC2)c2nc3ccccc3[nH]2)c1` (stereo not shown) (as salt: oxalate) [Example 486] reads 105 °C; that for `CN1CCC(OC(c2cccc(I)c2)c2nc3ccccc3s2)CC1` (stereo not shown) (as salt: oxalate) [Example 41, 2-[(3-iodophenyl)(1-methylpiperidin-4-yloxy)methyl]benzothiazole], 165 to 170 °C.
The result for `CN1CCC(OC(c2ccc3c(c2)OCCO3)c2nc3ccccc3s2)CC1` (stereo not shown) (as salt: hydrochloride) [Example 10, 2-[(2,3-dihydrobenzo[1,4]dioxin-6-yl)(1-methylpiperidin-4-yloxy)methyl]benzothiazole] reads 71 °C; that for `CN1CCC(OC(c2ccc3cc[nH]c3c2)c2nc3ccccc3[nH]2)CC1` (stereo not shown) (as salt: oxalate) [Example 550, 2-[(1H-indol-6-yl)(1-methylpiperidin-4-yloxy)methyl]-1H-benzimidazole], 170 °C; that for `CN1CCC(OC(c2cccc(N3CCC(N)CC3)c2)c2nc3ccccc3s2)CC1` (stereo not shown) (as salt: oxalate) [Example 405, 1-{3-[benzothiazol-2-yl(1-methylpiperidin-4-yloxy)methyl]phenyl}piperidin-4-ylamine], 137 °C.
The result for `CN1CCC(NC(c2cccc(OCc3ccc(F)cc3)c2)c2nc3ccccc3[nH]2)CC1` (stereo not shown) (as salt: oxalate) [Example 103, {(1H-benzimidazol-2-yl)[3-(4-fluorobenzyloxy)phenyl]methyl}(1-methylpiperidin-4-yl)amine] reads 140 °C; that for `CN1CCC(OC(c2cccc(CCCCCN)c2)c2nc3ccccc3s2)CC1` (stereo not shown) (as salt: hydrochloride) [Example 289, 5-{3-[benzothiazol-2-yl(1-methylpiperidin-4-yloxy)methyl]phenyl}pentylamine], 110 °C.
As to `CN1CCC(OC(c2cccc(N3CCCC3CO)c2)c2nc3ccccc3s2)CC1` (stereo not shown) (as salt: oxalate) [Example 323, (1-{3-[benzothiazol-2-yl(1-methylpiperidin-4-yloxy)methyl]phenyl}pyrrolidin-2-yl)methanol], the melting point came to 76 °C.
The result for `CN1CCC(OC(c2ccc(N)cc2)c2nc3ccccc3[nH]2)CC1` (stereo not shown) (as salt: hydrochloride) [Example 455, 4-[(1H-benzimidazol-2-yl)(1-methylpiperidin-4-yloxy)methyl]aniline] reads 185 °C; that for `CN1CCC(OC(c2cccc(C#CCCCN)c2)c2nc3cc(F)ccc3[nH]2)CC1` (stereo not shown) (as salt: oxalate) [Example 438, 5-{3-[(5-fluoro-1H-benzimidazol-2-yl)(1-methylpiperidin-4-yloxy)methyl]phenyl}pent-4-ynylamine], 150 °C; that for `CN1CCC(OC(c2cccc(OCCCCCN)c2)c2nc3ccccc3[nH]2)CC1` (stereo not shown) (as salt: oxalate) [Example 400, 5-{3-[(1H-benzimidazol-2-yl)(1-methylpiperidin-4-yloxy)methyl]phenoxy}pentylamine], 111 °C.
For `CN1CCC(OC(c2cccc(SCCCCN)c2)c2nc3cc(F)c(F)cc3[nH]2)CC1` (stereo not shown) (as salt: oxalate) [Example 495], the melting point stood at 180 °C.
The result for `CN1CCC(OC(c2cc(F)cc(F)c2)c2nc3ccccc3s2)CC1` (stereo not shown) (as salt: oxalate) [Example 15, 2-[(3,5-difluorophenyl)(1-methyl-piperidin-4-yloxy)methyl]benzothiazole] reads 165 °C; that for `CN1CCC(OC(c2cccc(SCCCCN)c2)c2nc3cc(F)c(F)c(F)c3[nH]2)CC1` (stereo not shown) (as salt: oxalate) [Example 493], 110 °C; that for `CN1CCC(OC(c2cccc(OCc3cccc(C(F)(F)F)c3)c2)c2nc3ccccc3s2)CC1` (stereo not shown) (as salt: oxalate) [Example 187, 2-{(1-methylpiperidin-4-yloxy)[3-(3-trifluoromethyl-benzyloxy)phenyl]methyl}benzothiazole], 80 °C.
The result for `CN1CCC(OC(c2nc3cc(F)ccc3[nH]2)c2cc(OC(F)(F)F)ccc2F)CC1` (stereo not shown) (as salt: oxalate) [Example 509] reads 70 °C; that for `CN1CCC(OC(c2cccc(OCCCCCNCCCCN)c2)c2nc3ccccc3[nH]2)CC1` (stereo not shown) (as salt: oxalate) [Example 419, N1-(5-{3-[(1H-benzimidazol-2-yl)(1-methylpiperidin-4-yloxy)methyl]phenoxy}pentyl)butane-1,4-diamine], 162 °C.
The result for `CN1CCC(OC(c2cccc(N3CCC(N)C3)c2)c2nc3ccccc3s2)CC1` (stereo not shown) (as salt: oxalate) [Example 423, 1-{3-[benzothiazol-2-yl(1-methylpiperidin-4-yloxy)methyl]phenyl}pyrrolidin-3-ylamine] reads 145 °C.

The values above are taken from patent US8802664B2 (Bioproject, priority 2010, dated 2014).
